Experimental data: US20190022239A1, “NOVEL BIOMOLECULE CONJUGATES AND USES THEREFOR” (The University of Western Australia, priority 2016, published 2019)

Columns and labels:
[1] = system: 4T1 breast carcinoma; assay: Immune cell infiltration in 4T1 breast carcinoma (FACS); type: in vivo, mice; settings: 2 μg daily i.v. for 5 days
From the text: Dextran coated iron oxide encapsulated with 18:0 PEG2000 PE micelle formulation and doxorabicin-micelles were made in the laboratory. 4T1 murine breast carcinoma is an orthotopic implant model by inoculating of 5×10^5 cells in die mammary fat pad of syngeneic BALB/c mice. RIP1-TagS insulinoma model (on C3H background) contains the oncogene SV40 Large T antigen (Tag; RIP, rat insulin gene promoter) that is exclusively expressed in β cells of the pancreas resulting in pancreatic tumours of neuroendocrine origin. ALB-Tag HOC (in C3H background) contains the oncogene SV40 Large T antigen (Tag) that is exclusively expressed in hepatocytes under the control of the albumin (ALB) promoter, resulting in rapid (non-metastatic) HCC tumour progression.
Mice bearing 4T1 breast carcinoma, when tumour size reached 500 mm^3, were treated with 0.5 and 2 μg TNFα-CSG or native TNFα (in 100 μL) by daily intravenous injection for 5 days. FACS quantification of CD4+ and CD8+ T cells and infiltrating macrophages (CD11b+/CD68+/F4/80+) harvested in whole tumours is presented in FIG. 5.
As noted in Example 2, native TNFα at 2 μg is toxic (all mice died after receiving 2 doses of 2 μg TNFα). A lower dose of native TNFα (0.5 μg) is not effective compared to 0.5 μg TNFα-CSG (FIG. 5).

[2] = system: 4T1 breast tumours; assay: Secondary metastasis of 4T1 breast tumours; type: in vivo, mice; settings: 10 μg daily i.v., up to eight injections
Description: 4T1cells in blood, lung, liver and lymph nodes were harvested once the primary tumours reached 2,000 mm^3. Cell suspensions from these tissues were cultured in 6-thioguanine-containing media to select for 4T1 cells that are resistant to 6-thioguanine. Colonic metastasis of methylene blue stained cells were counted. It is known that the lung is the primary site of metastasis of breast tumours. […] Similarly, the colonic metastasis counts in liver and lymph nodes were lower in the TNFα-CSG treated group.

Substance: TNFα-CSG: Mature murine TNFα (SEQ ID NO:6) with C-terminal conjugated peptide CSGRRSSKC connected via a GGG linker; recombinant fusion protein
- increase in immune cell infiltration (CD4+, CD8+ T cells, macrophages) [1]: most effective
- hypoxia in primary tumours [2]: significantly reduced hypoxia
- lung metastasis (cell density/tissue) [2]: significantly reduced lung metastasis
- metastatic colony counts in liver and lymph nodes [2]: lower
- tumour centre [2]: enlarged tumour centres that were cleared of tumour burden
